Test [1] in a line: Cytotoxicity against human 518A2 cells after 96 hrs by SRB assay. Type of test: functional, cell-based. The following applies: 518A2, 96 h. In general terms: The SRB assay estimates cell density from bound dye.
Another test deals with MCF7. As to the kind of experiment: Cytotoxicity against human MCF7 cells after 96 hrs by SRB assay. Format: functional, cell-based. The following applies: MCF7, 96 h.
The next test deals with A2780. As to the kind of experiment: Cytotoxicity against human A2780 cells after 96 hrs by SRB assay. Format: functional, cell-based. The following applies: A2780, 96 h.
A further test deals with A549. Briefly: Cytotoxicity against human A549 cells after 96 hrs by SRB assay. Format: functional, cell-based. The following applies: A549, 96 h.
The nature of test [2]: Cytotoxicity against mouse NIH/3T3 cells after 96 hrs by SRB assay. Type of test: cell-based. The following applies: NIH3T3, 96 h.
A further test has as its system FaDu. As to the kind of experiment: Cytotoxicity against human FADU cells after 96 hrs by SRB assay. Format: functional, cell-based.
The test system of the next test is HT-29. As to the kind of experiment: Cytotoxicity against human HT-29 cells after 96 hrs by SRB assay. The following applies: HT-29, 96 h. Format: functional, cell-based.

The structures appear in SMILES notation.

With `CC(=O)O[C@H]1CC[C@]2(C)[C@H]3CC=C4[C@@H]5[C@@H](C)[C@H](C)CC[C@]5(C(=O)N(C)O)CC[C@@]4(C)[C@]3(C)CC[C@H]2C1(C)C`, the EC50 in test [1] turned out to be 8.4 µM; with MCF7 it was 7.9 µM; with A2780, 6.5 µM; in the test with A549, 5.7 µM; in test [2] it was 6.6 µM; with FaDu it was 11.3 µM. The compound further came in with an EC50 in the test on HT-29 of 8.7 µM.

On to `C[C@H]1[C@H](C)CC[C@]2(C(=O)N(C)O)CC[C@]3(C)C(=CC[C@@H]4[C@@]5(C)CC[C@H](O)C(C)(C)[C@@H]5CC[C@]43C)[C@H]12`, for which the EC50 in test [1] turned out to be 12.5 µM; with MCF7, 15.4 µM; in the test with A2780, 4.5 µM; in the test on A549 it was 9.7 µM; in test [2] it was 10.1 µM; in the test with FaDu, 15.1 µM. The compound further came in with an EC50 in the test with HT-29 of 12.3 µM.

Take `CON(C)C(=O)[C@]12CC[C@@H](C)[C@H](C)[C@H]1C1=CC[C@@H]3[C@@]4(C)CCC(=O)C(C)(C)[C@@H]4CC[C@@]3(C)[C@]1(C)CC2`: the EC50 in test [1] turned out to be 15.5 µM; in the test with MCF7, 10.7 µM; in the test with A2780, 4.5 µM; in the test on A549, 8.7 µM; in test [2] it was 18.5 µM; in the test with FaDu it was 8.3 µM. In the test with HT-29, this compound gave an EC50 of 18.7 µM.

Regarding `CONC(=O)[C@]12CCC(C)(C)C[C@H]1C1=CC[C@@H]3[C@@]4(C)CCC(=O)C(C)(C)[C@@H]4CC[C@@]3(C)[C@]1(C)CC2`, the EC50 in test [1] was 17.7 µM; in the test with MCF7, 20 µM; with A2780, 6.1 µM; in the test with A549, 4.8 µM; in test [2], 12.2 µM; with FaDu, 23.1 µM. Also, in the test on HT-29, the response was half-maximal at 18.6 µM (EC50).

`CONC(=O)[C@]12CCC(C)(C)C[C@H]1C1=CC[C@@H]3[C@@]4(C)CC[C@H](O)C(C)(C)[C@@H]4CC[C@@]3(C)[C@]1(C)CC2`: the EC50 in test [1] amounted to 12.8 µM; in the test with MCF7 it was 17 µM; in the test with A2780, 12.3 µM; in the test on A549, 20.9 µM; in test [2], 18.2 µM; with FaDu, 14.3 µM. The compound further had an EC50 with HT-29 of 18.8 µM.

With `CN(O)C(=O)[C@]12CCC(C)(C)C[C@H]1C1=CC[C@@H]3[C@@]4(C)CC[C@H](O)C(C)(C)[C@@H]4CC[C@@]3(C)[C@]1(C)CC2`, the EC50 in test [1] was determined as 11.6 µM; in the test on MCF7, 8.3 µM; with A2780 it was 3.9 µM; with A549, 9.8 µM; in test [2], 11.1 µM; in the test with FaDu, 5.8 µM. Further, a half-maximal response in the test with HT-29 (EC50) required 8.7 µM.

As for `CONC(=O)[C@]12CC[C@@H](C)[C@H](C)[C@H]1C1=CC[C@@H]3[C@@]4(C)CCC(=O)C(C)(C)[C@@H]4CC[C@@]3(C)[C@]1(C)CC2`, the EC50 in test [1] amounted to 12.9 µM; in the test with MCF7 it was 11.2 µM; in the test on A2780, 14.3 µM; with A549, 9.2 µM; in test [2], 14.3 µM; in the test with FaDu it was 12 µM. This compound came in with a concentration for a half-maximal effect (EC50) in the test with HT-29 of 12.9 µM.

For `CON(C)C(=O)[C@]12CCC(C)(C)C[C@H]1C1=CC[C@@H]3[C@@]4(C)CC[C@H](OC(C)=O)C(C)(C)[C@@H]4CC[C@@]3(C)[C@]1(C)CC2`, the EC50 in test [1] is 8.4 µM; with MCF7, 7.5 µM; with A2780, 6.8 µM; with A549 it was 17.6 µM; in test [2], 13.3 µM; with FaDu it was 9.4 µM. This compound also yielded an EC50 in the test on HT-29 of 13.1 µM.

As to `C[C@H]1[C@H](C)CC[C@]2(C(=O)O)CC[C@]3(C)C(=CC[C@@H]4[C@@]5(C)CC[C@H](O)C(C)(C)[C@@H]5CC[C@]43C)[C@H]12` [URSOLIC ACID], the figures for the EC50 (in the test on A2780; in test [2]; in the test with FaDu) were 11.7 µM, 18.7 µM and 14.2 µM, respectively.

As for `C=C(C)[C@@H]1CC[C@]2(C(=O)O)CC[C@]3(C)[C@H](CC[C@@H]4[C@@]5(C)CC[C@H](O)C(C)(C)[C@@H]5CC[C@]43C)[C@@H]12` [BETULINIC ACID], the EC50 in test [1] was found to be 9.4 µM; with FaDu, 15.3 µM; in the test on HT-29, 14.4 µM.

The EC50 is the concentration at which the effect is half-maximal. Read a high EC50 as lower potency in that assay.

For the origin of these results see ChEMBL document CHEMBL3751798, “Targeting cancer cells with oleanolic and ursolic acid derived hydroxamates” (Bioorg Med Chem Lett, 2016).
